{"source": "patent US20230037538A1", "about": "“ANTI-ALS COMPOUNDS” (Takeda Pharmaceutical Company Limited, priority 2021, published 2023)", "type_in_all_cases": "cell-based, human", "key": {"FTD affected fibroblasts": {"system": "FTD affected fibroblasts", "experiment": "Stress granule assay in FTD affected fibroblasts (TDP-43 / HuR immunostaining after arsenite stress)", "conditions": "vehicle (DMSO) alone set at 100, lower = fewer TDP-43 aggregates; for Normalized average number of TDP-43 positive HuR aggregates per cell at 1.5 μM: 1.5 μM compound; for activity at 1 µM: Homo sapiens, Fibroblast, 1 μM compound, read-out: Normalized average number of TDP-43 positive HuR aggregates per cell at 1 μM", "procedure": "In this assay, TDP-43 aggregates in stress granules were quantified after 24 hrs of drug treatment followed by 90 minutes of 100 μM arsenite stress.\nOn day 1 20,000 patient derived fibroblasts per well were seeded in a 24 well glass bottom plate or 6000 cells per well in a 96 well plate. On day 2 compounds were added at the desired final concentration in fresh media to the respective wells. On day 3 sodium arsenite was added at a final concentration of 500 μM. Incubated at 37° C. for 60 mins. On day 9 wells were washed with PBS and fixed cells using 4% para formaldehyde (in PBS, prepared freshly, methanol free) for 15 mins at room temperature. Washed with PBS, blocked and permeabilized cells with 1% BSA+1% saponin (prepared in PBS) for 1 hour. For Immunostaining primary antibodies were made in 1% BSA (in PBS) and incubated overnight at 4° C. Rabbit polyclonal TDP-43 C-terminal antibody (Proteintech 12892-1-AP)-1:350; mouse monoclonal HuR antibody (Santa Cruz sc-5261)-1:500. On the next day, added the following secondary antibodies Alexa 594 anti-rabbit (Thermofisher Scientific) and Alexa 488 anti-mouse (Thermofisher Scientific) (1:500) in 1% BSA (in PBS) and kept in dark for 1-2 hours at room temperature. Washed and added DAPI in PBS for nuclear staining. The images were analyzed by the open source image analysis software CellProfiler 2.1.1 (offered by Broad Institute of Harvard and MIT—www.cellprofiler.org). This software contains various modules which can be used to analyze images in different ways.\nThe lower the number, the fewer the TDP-43 aggregates compared to vehicle (DMSO) alone, which is set at 100."}, "Mutant VCP fibroblast": {"system": "Mutant VCP fibroblast", "experiment": "Nucleocytoplasmic assay (NCA) in patient fibroblast, mutant VCP fibroblast", "conditions": "compound at 1 μM; DMSO-treated cell set as 100", "procedure": "(§1) Skin-derived fibroblasts cells from Amnyotrophic Lateral Sclerosis (ALS) and Frontotemporal Degeneration (FTD) patients or affected individual acquired from the National Institute of Neurological Disorders and Stroke (NINDS #ND32947, ND41006, ND42717) were grown in HyClone DMEM High Glucose (GE Healthcare Life Sciences) supplemented with 15% FBS and 1% NEAA (Non-Essential Amino Acids), at 37° C. in a humidified atmosphere of 5% CO2. On day 1600 cells per well were seeded in a 96 well glass bottom plate or 1200 cells per well in a 24 well glass bottom plate. Incubated for 4 days, at 37° C. in a humidified atmosphere of 5% CO2, allowed cells to grow for 4 days. On day added compounds including vehicle control at the desired final concentration in fresh media to the respective wells, allowed cells to grow for an additional 4 days. On day 9 washed wells with PBS and fixed cells using 4% para formaldehyde (in PBS, prepared freshly, methanol free) for 15 mins at room temperature. Washed with PBS, blocked and permeabilized cells with 1% BSA+1% saponin (prepared in PBS) for 1 hour. For immunostaining the following primary antibodies were added in 1% BSA (in PBS) and incubated overnight at 4° C. Rabbit polyclonal TDP-43 C-terminal antibody (Proteintech 12892-1-AP)-1:350; mouse monoclonal HuR antibody (Santa Cruz sc-5261)-1:500. On the next day, added the following secondary antibodies Alexa 594 anti-rabbit (Thermofisher Scientific) and Alexa 488 anti-mouse (Thermofisher Scientific) (1:500) in 1% BSA (in PBS) and kept it in dark for 1-2 hours at room temperature. Wash and add DAPI in PBS for nuclear staining.\n(§2) The immuno-stained cells were imaged with Nikon Ti inverted fluorescence microscope having CSU-22 spinning disk confocal and EMCCD camera. Plan Apo 20×/0.75 objective and NIS-Elements AR software were used for image acquisition. At least 15 images per well were taken. The exposure times for TDP-43 and HuR remained constant across one experiment. Each image acquired (in .nd format) was exported into three individual channel images (for DAPI, TDP-43, HuR) in .tiff format. The images were analyzed by the open source image analysis software Cell Profiller to calculate the signal intensities of TDP-43 present in the nucleus and cytoplasm in each cell. The DAPI image was used to count the total number of cells. The TDP-43 and HuR images are used to count the number of cells containing TDP-43 and/or HuR nuclear staining.\n(§3) The nucleus/cytoplasm ratio of intensities of TDP-43 in each compound-treated (at 1 μM) cells comparing to DMSO-treated cell (which is set as 100) were shown."}, "[1]": {"system": "Fibroblast from FTD affected individual", "experiment": "Nucleocytoplasmic assay (NCA) in patient fibroblast, fibroblast from FTD affected individual", "conditions": "compound at 1 μM; DMSO-treated cell set as 100", "procedure": "as §1, §2, §3"}, "Mutant TDP-43 fibroblast": {"system": "Mutant TDP-43 fibroblast", "experiment": "Nucleocytoplasmic assay (NCA) in patient fibroblast, mutant TDP-43 fibroblast", "conditions": "compound at 1 μM; DMSO-treated cell set as 100", "procedure": "as §1, §2, §3"}}}
{"smiles": "COc1cc2c(cc1OCc1ccccc1)CCNC2/C=C/c1cnc2ncc(C(F)(F)F)cn12", "note": "(centres unmarked) [AD, (E)-6-(benzyloxy)-7-methoxy-1-(2-(6-(trifluoromethyl)imidazo[1,2-a]pyrimidin-3-yl)vinyl)-1,2,3,4-tetrahydroisoquinoline]", "values": [{"measurement": "Normalized average number of TDP-43 positive HuR aggregates per cell at 1.5 μM", "setting": "FTD affected fibroblasts", "result": 71.00}, {"measurement": "activity at 1 µM", "setting": "FTD affected fibroblasts", "result": 83, "unit": "%"}]}
{"smiles": "COc1cc2c(cc1OCc1ccccc1)CCNC2/C=C/c1cn(C)c2nccc(OC)c12", "note": "(centres unmarked) [Example 26, 6-(benzyloxy)-7-methoxy-1-[(E)-2-(4-methoxy-1-methyl-1H-pyrrolo[2,3-b]pyridin-3-yl)ethenyl]-1,2,3,4-tetrahydroisoquinoline]", "values": [{"measurement": "nucleus/cytoplasm ratio of intensities of TDP-43, Mutant VCP fibroblast", "setting": "Mutant VCP fibroblast", "result": 256}, {"measurement": "activity at 1 µM", "setting": "FTD affected fibroblasts", "result": 59, "unit": "%"}, {"measurement": "nucleus/cytoplasm ratio of intensities of TDP-43, Fibroblast from FTD affected individual", "setting": "[1]", "result": 146}]}
{"smiles": "COc1cc2c(cc1OCc1ccccc1)CCNC2/C=C/c1cnc2ncccn12", "note": "(centres unmarked) [AA, (E)-6-(benzyloxy)-1-(2-(imidazo[1,2-a]pyrimidin-3-yl)vinyl)-7-methoxy-1,2,3,4-tetrahydroisoquinoline]", "values": [{"measurement": "activity at 1 µM", "setting": "FTD affected fibroblasts", "result": 85, "unit": "%"}]}
{"smiles": "COc1cc2c(cc1OCc1ccccc1)CCNC2/C=C/c1cnc2ncc(C(=O)O)cn12.Cl", "note": "(centres unmarked) [AH, (E)-3-(2-(6-(benzyloxy)-7-methoxy-1,2,3,4-tetrahydroisoquinolin-1-yl)vinyl)imidazo[1,2-a]pyrimidine-6-carboxylic acid]", "values": [{"measurement": "Normalized average number of TDP-43 positive HuR aggregates per cell at 1.5 μM", "setting": "FTD affected fibroblasts", "result": 71.4}]}
{"smiles": "CCOC(=O)c1cnc2ncc(/C=C/C3NCCc4cc(OCc5ccccc5)c(OC)cc43)n2c1", "note": "(centres unmarked) [AG, Ethyl (E)-3-(2-(6-(benzyloxy)-7-methoxy-1,2,3,4-tetrahydroisoquinolin-1-yl)vinyl)imidazo[1,2-a]pyrimidine-6-carboxylate]", "values": [{"measurement": "activity at 1 µM", "setting": "FTD affected fibroblasts", "result": 87, "unit": "%"}]}
{"smiles": "COc1cc2c(cc1OCc1ccccc1)CCNC2/C=C/c1cc2c(cc1C)OCCO2", "note": "(centres unmarked) [Example 4, 6-(benzyloxy)-7-methoxy-1-[(E)-2-(7-methyl-2,3-dihydro-1,4-benzodioxin-6-yl)ethenyl]-1,2,3,4-tetrahydroisoquinoline]", "values": [{"measurement": "activity at 1 µM", "setting": "FTD affected fibroblasts", "result": 70.9, "unit": "%"}, {"measurement": "nucleus/cytoplasm ratio of intensities of TDP-43, Mutant TDP-43 fibroblast", "setting": "Mutant TDP-43 fibroblast", "result": 130}]}
{"smiles": "COc1cc2c(cc1OCc1ccccc1)CCNC2/C=C/c1cnc2ncc(F)cn12", "note": "(centres unmarked) [AC, (E)-6-(benzyloxy)-1-(2-(6-fluoroimidazo[1,2-a]pyrimidin-3-yl)vinyl)-7-methoxy-1,2,3,4-tetrahydroisoquinoline]", "values": [{"measurement": "activity at 1 µM", "setting": "FTD affected fibroblasts", "result": 85.8, "unit": "%"}]}
{"smiles": "COc1cc2c(cc1OCc1ccccc1)CCNC2/C=C/c1cnc2ncc(C)cn12", "note": "(centres unmarked) [AF, (E)-6-(benzyloxy)-7-methoxy-1-(2-(6-methylimidazo[1,2-a]pyrimidin-3-yl)vinyl)-1,2,3,4-tetrahydroisoquinoline]", "values": [{"measurement": "Normalized average number of TDP-43 positive HuR aggregates per cell at 1.5 μM", "setting": "FTD affected fibroblasts", "result": 65.5}]}
{"smiles": "COc1cc2c(cc1OCc1ccccc1)CCNC2/C=C/c1cc2c(cc1C)OCO2", "note": "(centres unmarked) [Example 5, 6-(benzyloxy)-7-methoxy-1-[(E)-2-(6-methyl-2H-1,3-benzodioxol-5-yl)ethenyl]-1,2,3,4-tetrahydroisoquinoline]", "values": [{"measurement": "nucleus/cytoplasm ratio of intensities of TDP-43, Mutant VCP fibroblast", "setting": "Mutant VCP fibroblast", "result": 179}, {"measurement": "activity at 1 µM", "setting": "FTD affected fibroblasts", "result": 83.3, "unit": "%"}, {"measurement": "nucleus/cytoplasm ratio of intensities of TDP-43, Fibroblast from FTD affected individual", "setting": "[1]", "result": 139}, {"measurement": "nucleus/cytoplasm ratio of intensities of TDP-43, Mutant TDP-43 fibroblast", "setting": "Mutant TDP-43 fibroblast", "result": 137}]}
{"smiles": "COc1cnc2ncc(/C=C/C3NCCc4cc(OCc5ccccc5)c(OC)cc43)n2c1", "note": "(centres unmarked) [AE, (E)-6-(benzyloxy)-7-methoxy-1-(2-(6-methoxyimidazo[1,2-a]pyrimidin-3-yl)vinyl)-1,2,3,4-tetrahydroisoquinoline]", "values": [{"measurement": "Normalized average number of TDP-43 positive HuR aggregates per cell at 1.5 μM", "setting": "FTD affected fibroblasts", "result": 73.75}]}
{"smiles": "COc1cnc2c(c1)c(/C=C/C1NCCc3cc(OCc4ccccc4)c(OC)cc31)cn2C", "note": "(centres unmarked) [Example 7, 6-(benzyloxy)-7-methoxy-1-[(E)-2-(5-methoxy-1-methyl-1H-pyrrolo[2,3-b]pyridin-3-yl)ethenyl]-1,2,3,4-tetrahydroisoquinoline]", "values": [{"measurement": "nucleus/cytoplasm ratio of intensities of TDP-43, Mutant VCP fibroblast", "setting": "Mutant VCP fibroblast", "result": 191}, {"measurement": "activity at 1 µM", "setting": "FTD affected fibroblasts", "result": 40, "unit": "%"}, {"measurement": "nucleus/cytoplasm ratio of intensities of TDP-43, Fibroblast from FTD affected individual", "setting": "[1]", "result": 175}, {"measurement": "nucleus/cytoplasm ratio of intensities of TDP-43, Mutant TDP-43 fibroblast", "setting": "Mutant TDP-43 fibroblast", "result": 143}]}
{"smiles": "COc1cc(C)c(/C=C/C2NCCc3cc(OCc4ccccc4)c(OC)cc32)cc1OC", "note": "(centres unmarked) [Example 1, 6-(benzyloxy)-1-[(E)-2-(4,5-dimethoxy-2-methylphenyl)ethenyl]-7-methoxy-1,2,3,4-tetrahydroisoquinoline]", "values": [{"measurement": "nucleus/cytoplasm ratio of intensities of TDP-43, Mutant VCP fibroblast", "setting": "Mutant VCP fibroblast", "result": 153}, {"measurement": "activity at 1 µM", "setting": "FTD affected fibroblasts", "result": 67, "unit": "%"}, {"measurement": "nucleus/cytoplasm ratio of intensities of TDP-43, Fibroblast from FTD affected individual", "setting": "[1]", "result": 148}, {"measurement": "nucleus/cytoplasm ratio of intensities of TDP-43, Mutant TDP-43 fibroblast", "setting": "Mutant TDP-43 fibroblast", "result": 147}]}
{"smiles": "COc1cc2c(cc1OCc1ccccc1)CCNC2/C=C/c1ccc(-c2cncnc2)cc1Cl", "note": "(centres unmarked) [Example 9, 6-(benzyloxy)-1-{(E)-2-[2-chloro-4-(pyrimidin-5-yl)phenyl]ethenyl}-7-methoxy-1,2,3,4-tetrahydroisoquinoline]", "values": [{"measurement": "nucleus/cytoplasm ratio of intensities of TDP-43, Mutant VCP fibroblast", "setting": "Mutant VCP fibroblast", "result": 200}]}
